Experimental data: patent US6221386A (priority 1996, dated 2001)
Read-outs that look alike come from different tables or passages of the source.

Key:
Assay type in all cases: in vivo, BALB/c mice
Brucella melitensis 16M [1] = conditions: 1 mg ciprofloxacin/mouse intramuscularly, 5 × 10^4 CFU
Brucella melitensis 16M [2] = conditions: 1 mg/mouse intramuscularly
Brucella melitensis 16M [3] = conditions: intramuscular; 1 mg antibiotic/mouse on days 7, 8 and 9; sacrificed day 12

Structure (SMILES)	B. melitensis 16M counts in spleens 7 days after infection (Brucella melitensis 16M [1]; single dose 1 day before infection)	B. melitensis 16M counts in spleens 7 days after infection (Brucella melitensis 16M [1]; single dose 2 days before infection)	B. melitensis 16M counts in spleens 7 days after infection (Brucella melitensis 16M [1]; single dose 3 days before infection)	B. melitensis 16M counts in spleens 7 days after infection (Brucella melitensis 16M [1]; single dose 7 days before infection)	B. melitensis 16M counts in spleens 7 days after infection (Brucella melitensis 16M [2]; single dose 1 day after infection (title; head prints before))	B. melitensis 16M counts in spleens 7 days after infection (Brucella melitensis 16M [2]; single dose 2 days after infection (title; head prints before))	B. melitensis 16M counts in spleens 7 days after infection (Brucella melitensis 16M [2]; single dose 3 days after infection (title; head prints before))	B. melitensis 16M counts in spleens 7 days after infection (Brucella melitensis 16M [2]; single dose 7 days after infection (title; head prints before))	Spleen counts after antibiotic was given (Brucella melitensis 16M [3])
O=C(O)c1cn(C2CC2)c2cc(N3CCNCC3)c(F)cc2c1=O [Ciprofloxacin, ciprofloxacin]	1.5 ± 0.3 × 10^4	2.8 ± 1.0 × 10^4	1.4 ± 0.2 × 10^4	1.9 ± 0.4 × 10^4	1.6 ± 0.3 × 10^4	13.0 ± 0.6 × 10^4	3.5 ± 0.9 × 10^4	3.9 ± 1.6 × 10^4	1.3 ± 0.4 × 10^4
CN(C)C1C(=O)C(C(N)=O)=C(O)C2(O)C(=O)C3=C(O)c4c(O)cccc4C(C)(O)C3CC12 (stereo not shown) [Tetracycline, tetracycline]									4.8 ± 0.8 × 10^3
